From ChEMBL document CHEMBL5512655, “Discovery of indolylacryloyl-derived oxacins as novel potential broad-spectrum antibacterial candidates” (Eur J Med Chem, 2024) come the findings set out here.

What all share (assay type): functional
Assay [1] relates to Staphylococcus aureus. The assay can be described thus: Antibacterial activity against methicillin-resistant Staphylococcus aureus N315 assessed as inhibition of bacterial growth measured after 24 hrs incubation.
A further assay deals with Acinetobacter baumannii. The assay can be described thus: Antibacterial activity against Acinetobacter baumannii assessed as inhibition of bacterial growth measured after 24 hrs incubation.
The test system of another assay is Enterococcus faecalis. Kind of assay: Antibacterial activity against Enterococcus faecalis assessed as inhibition of bacterial growth measured after 24 hrs incubation.
The subject of the next assay is Klebsiella pneumoniae. The assay can be described thus: Antibacterial activity against Klebsiella pneumonia assessed as inhibition of bacterial growth measured after 24 hrs incubation.
Assay [2] deals with Staphylococcus aureus. The assay can be described thus: Antibacterial activity against Staphylococcus aureus assessed as inhibition of bacterial growth measured after 24 hrs incubation.
Assay [3] relates to Escherichia coli. The assay can be described thus: Antibacterial activity against Escherichia coli ATCC 25922 assessed as inhibition of bacterial growth measured after 24 hrs incubation.
Assay [4] relates to Pseudomonas aeruginosa. Kind of assay: Antibacterial activity against Pseudomonas aeruginosa assessed as inhibition of bacterial growth measured after 24 hrs incubation.
Assay [5] concerns Staphylococcus aureus. Kind of assay: Antibacterial activity against Staphylococcus aureus ATCC 29213 assessed as inhibition of bacterial growth measured after 24 hrs incubation.
For assay [6], the system named is Pseudomonas aeruginosa. The assay can be described thus: Antibacterial activity against Pseudomonas aeruginosa ATCC 27853 assessed as inhibition of bacterial growth measured after 24 hrs incubation.
For assay [7], the system named is Escherichia coli. Kind of assay: Antibacterial activity against Escherichia coli assessed as inhibition of bacterial growth measured after 24 hrs incubation.
Assay [8] relates to Staphylococcus aureus. Kind of assay: Antibacterial activity against Staphylococcus aureus ATCC 25923 assessed as inhibition of bacterial growth measured after 24 hrs incubation.

≈ marks a conversion by molar mass, not a printed value.

The MIC is the lowest concentration that inhibits growth of the organism. For `CCn1cc(C(=O)O)c(=O)c2cc(F)c(N3CCN(C(=O)/C(C#N)=C/c4cn(Cc5ccc(Cl)cc5)c5ccccc45)CC3)cc21`, the MIC with Staphylococcus aureus [1] stood at 32 µg/mL (≈ 50.1 µM); with Acinetobacter baumannii, 0.5 µg/mL (≈ 0.784 µM); in the assay on Enterococcus faecalis it was 32 µg/mL (≈ 50.1 µM); with Klebsiella pneumoniae, 0.5 µg/mL (≈ 0.784 µM); in the assay on Staphylococcus aureus [2] it was 64 µg/mL (≈ 100 µM); in the assay with Escherichia coli [3], 4 µg/mL (≈ 6.27 µM). Further, the MIC in the assay on Pseudomonas aeruginosa [4] was found to be 0.5 µg/mL (≈ 0.784 µM); in the assay with Staphylococcus aureus [5] it was 16 µg/mL (≈ 25.1 µM); in the assay on Pseudomonas aeruginosa [6], 1 µg/mL (≈ 1.57 µM); in the assay on Escherichia coli [7] it was 1 µg/mL (≈ 1.57 µM); with Staphylococcus aureus [8], 16 µg/mL (≈ 25.1 µM).

Consider `CCn1cc(C(=O)O)c(=O)c2cc(F)c(N3CCN(C(=O)/C(C#N)=C/c4c[nH]c5cc(F)ccc45)CC3)cc21`, for which the MIC with Staphylococcus aureus [1] turned out to be 8 µg/mL (≈ 15.1 µM); in the assay on Acinetobacter baumannii, 2 µg/mL (≈ 3.76 µM); in the assay with Enterococcus faecalis, 8 µg/mL (≈ 15.1 µM); in the assay with Klebsiella pneumoniae, 0.5 µg/mL (≈ 0.941 µM); in the assay with Staphylococcus aureus [2], 1 µg/mL (≈ 1.88 µM); with Escherichia coli [3], 2 µg/mL (≈ 3.76 µM). Moreover, the MIC in the assay on Pseudomonas aeruginosa [4] stood at 1 µg/mL (≈ 1.88 µM); in the assay on Staphylococcus aureus [5], 2 µg/mL (≈ 3.76 µM); with Pseudomonas aeruginosa [6], 1 µg/mL (≈ 1.88 µM); in the assay on Escherichia coli [7], 4 µg/mL (≈ 7.53 µM); in the assay with Staphylococcus aureus [8], 4 µg/mL (≈ 7.53 µM).

For the molecule `CCCCCCCCn1cc(C(=O)O)c(=O)c2cc(F)c(N3CCN(C(=O)/C(C#N)=C/c4cn(CC(=O)OCC)c5ccccc45)CC3)cc21`, the MIC in the assay with Staphylococcus aureus [1] came out at 8 µg/mL (≈ 11.7 µM); in the assay with Acinetobacter baumannii it was 2 µg/mL (≈ 2.92 µM); in the assay with Enterococcus faecalis, 1 µg/mL (≈ 1.46 µM); with Klebsiella pneumoniae it was 4 µg/mL (≈ 5.85 µM); in the assay with Staphylococcus aureus [2], 32 µg/mL (≈ 46.8 µM); with Escherichia coli [3], 0.5 µg/mL (≈ 0.731 µM). The minimum inhibitory concentration (MIC) worked out at 16 µg/mL (≈ 23.4 µM) with Pseudomonas aeruginosa [4]; 256 µg/mL (≈ 374 µM) with Staphylococcus aureus [5]; 16 µg/mL (≈ 23.4 µM) in the assay on Pseudomonas aeruginosa [6]; 0.25 µg/mL (≈ 0.366 µM) in the assay on Escherichia coli [7]; 4 µg/mL (≈ 5.85 µM) with Staphylococcus aureus [8].

In the case of `CCn1cc(C(=O)O)c(=O)c2cc(F)c(N3CCN(C(=O)/C(C#N)=C/c4cn(CC5CCCCC5)c5ccccc45)CC3)cc21`, the MIC in the assay on Staphylococcus aureus [1] turned out to be 16 µg/mL (≈ 26.2 µM); in the assay with Acinetobacter baumannii it was 1 µg/mL (≈ 1.64 µM); in the assay on Enterococcus faecalis it was 32 µg/mL (≈ 52.5 µM); in the assay with Klebsiella pneumoniae it was 1 µg/mL (≈ 1.64 µM); in the assay with Staphylococcus aureus [2] it was 32 µg/mL (≈ 52.5 µM); with Escherichia coli [3], 4 µg/mL (≈ 6.56 µM). Moreover, the MIC in the assay on Pseudomonas aeruginosa [4] came to 2 µg/mL (≈ 3.28 µM); in the assay on Staphylococcus aureus [5], 1 µg/mL (≈ 1.64 µM); in the assay on Pseudomonas aeruginosa [6] it was 1 µg/mL (≈ 1.64 µM); with Escherichia coli [7] it was 1 µg/mL (≈ 1.64 µM); in the assay on Staphylococcus aureus [8], 16 µg/mL (≈ 26.2 µM).

`CCn1cc(C(=O)O)c(=O)c2cc(F)c(N3CCN(C(=O)/C(C#N)=C/c4cn(Cc5cccc(F)c5)c5ccccc45)CC3)cc21`: the minimal inhibitory concentration (MIC) stood at 16 µg/mL (≈ 25.7 µM) in the assay with Staphylococcus aureus [1]; 0.5 µg/mL (≈ 0.804 µM) with Acinetobacter baumannii; 16 µg/mL (≈ 25.7 µM) in the assay on Enterococcus faecalis; 1 µg/mL (≈ 1.61 µM) in the assay with Klebsiella pneumoniae; 32 µg/mL (≈ 51.5 µM) in the assay with Staphylococcus aureus [2]; 0.25 µg/mL (≈ 0.402 µM) in the assay with Escherichia coli [3]. Besides, the MIC with Pseudomonas aeruginosa [4] stood at 2 µg/mL (≈ 3.22 µM); in the assay on Staphylococcus aureus [5], 8 µg/mL (≈ 12.9 µM); in the assay with Pseudomonas aeruginosa [6], 1 µg/mL (≈ 1.61 µM); in the assay on Escherichia coli [7] it was 0.25 µg/mL (≈ 0.402 µM); in the assay on Staphylococcus aureus [8], 16 µg/mL (≈ 25.7 µM).

Consider `C=CCn1cc(/C=C(\C#N)C(=O)N2CCN(c3cc4c(cc3F)c(=O)c(C(=O)O)cn4CC)CC2)c2ccccc21`, for which the MIC is 2 µg/mL (≈ 3.61 µM) with Staphylococcus aureus [1]; 2 µg/mL (≈ 3.61 µM) with Acinetobacter baumannii; 8 µg/mL (≈ 14.5 µM) in the assay on Enterococcus faecalis; 1 µg/mL (≈ 1.81 µM) in the assay on Klebsiella pneumoniae; 1 µg/mL (≈ 1.81 µM) in the assay on Staphylococcus aureus [2]; 1 µg/mL (≈ 1.81 µM) with Escherichia coli [3]. In addition, the minimal inhibitory concentration (MIC) in the assay with Pseudomonas aeruginosa [4] was 1 µg/mL (≈ 1.81 µM); in the assay on Staphylococcus aureus [5] it was 16 µg/mL (≈ 28.9 µM); with Pseudomonas aeruginosa [6] it was 0.25 µg/mL (≈ 0.452 µM); in the assay with Escherichia coli [7], 8 µg/mL (≈ 14.5 µM); in the assay with Staphylococcus aureus [8], 1 µg/mL (≈ 1.81 µM).

On to `C#CCn1cc(/C=C(\C#N)C(=O)N2CCN(c3cc4c(cc3F)c(=O)c(C(=O)O)cn4CC)CC2)c2ccccc21`, for which the MIC was 0.25 µg/mL (≈ 0.453 µM) with Staphylococcus aureus [1]; 0.25 µg/mL (≈ 0.453 µM) in the assay on Acinetobacter baumannii; 0.5 µg/mL (≈ 0.906 µM) with Enterococcus faecalis; 0.25 µg/mL (≈ 0.453 µM) with Klebsiella pneumoniae; 0.25 µg/mL (≈ 0.453 µM) with Staphylococcus aureus [2]; 0.5 µg/mL (≈ 0.906 µM) in the assay with Escherichia coli [3]. Moreover, the MIC is 0.5 µg/mL (≈ 0.906 µM) in the assay with Pseudomonas aeruginosa [4]; 0.5 µg/mL (≈ 0.906 µM) in the assay on Staphylococcus aureus [5]; 4 µg/mL (≈ 7.25 µM) with Pseudomonas aeruginosa [6]; 1 µg/mL (≈ 1.81 µM) with Escherichia coli [7]; 0.25 µg/mL (≈ 0.453 µM) in the assay with Staphylococcus aureus [8].

For `CCn1cc(C(=O)O)c(=O)c2cc(F)c(N3CCN(C(=O)/C(C#N)=C/c4cn(CCN5CCOCC5)c5ccccc45)CC3)cc21`, the MIC with Staphylococcus aureus [1] is 0.25 µg/mL (≈ 0.399 µM); in the assay with Acinetobacter baumannii, 0.5 µg/mL (≈ 0.798 µM); in the assay with Enterococcus faecalis, 0.25 µg/mL (≈ 0.399 µM); in the assay on Klebsiella pneumoniae, 2 µg/mL (≈ 3.19 µM); in the assay on Staphylococcus aureus [2] it was 0.5 µg/mL (≈ 0.798 µM); with Escherichia coli [3] it was 2 µg/mL (≈ 3.19 µM). For the same molecule, the MIC was determined as 1 µg/mL (≈ 1.6 µM) in the assay on Pseudomonas aeruginosa [4]; 0.5 µg/mL (≈ 0.798 µM) with Staphylococcus aureus [5]; 1 µg/mL (≈ 1.6 µM) in the assay with Pseudomonas aeruginosa [6]; 1 µg/mL (≈ 1.6 µM) in the assay with Escherichia coli [7]; 4 µg/mL (≈ 6.38 µM) with Staphylococcus aureus [8].
